According to patent US8450350B2, “Triazoles as inhibitors of fatty acid synthase” (Infinity Pharmaceuticals, Inc., priority 2010, dated 2013):

The compounds below were run against T1, human FASN (Homo sapiens, UniProt P49327) (assay: FASN NADPH consumption assay). Details: IC50 class, FASN NADPH Consumption Assay (symbols without asterisk); human FASN purified from SKBR3 cells.
T1 construct: purified from SKBR3 cells using procedures modified from those in Jayakumar et al; endogenous in cells; host or cells: SKBR3 cells (ATCC); endogenous FASN purified in house by ammonium sulfate precipitation and mono Q chromatography
T1 sequence (P49327 whole entry): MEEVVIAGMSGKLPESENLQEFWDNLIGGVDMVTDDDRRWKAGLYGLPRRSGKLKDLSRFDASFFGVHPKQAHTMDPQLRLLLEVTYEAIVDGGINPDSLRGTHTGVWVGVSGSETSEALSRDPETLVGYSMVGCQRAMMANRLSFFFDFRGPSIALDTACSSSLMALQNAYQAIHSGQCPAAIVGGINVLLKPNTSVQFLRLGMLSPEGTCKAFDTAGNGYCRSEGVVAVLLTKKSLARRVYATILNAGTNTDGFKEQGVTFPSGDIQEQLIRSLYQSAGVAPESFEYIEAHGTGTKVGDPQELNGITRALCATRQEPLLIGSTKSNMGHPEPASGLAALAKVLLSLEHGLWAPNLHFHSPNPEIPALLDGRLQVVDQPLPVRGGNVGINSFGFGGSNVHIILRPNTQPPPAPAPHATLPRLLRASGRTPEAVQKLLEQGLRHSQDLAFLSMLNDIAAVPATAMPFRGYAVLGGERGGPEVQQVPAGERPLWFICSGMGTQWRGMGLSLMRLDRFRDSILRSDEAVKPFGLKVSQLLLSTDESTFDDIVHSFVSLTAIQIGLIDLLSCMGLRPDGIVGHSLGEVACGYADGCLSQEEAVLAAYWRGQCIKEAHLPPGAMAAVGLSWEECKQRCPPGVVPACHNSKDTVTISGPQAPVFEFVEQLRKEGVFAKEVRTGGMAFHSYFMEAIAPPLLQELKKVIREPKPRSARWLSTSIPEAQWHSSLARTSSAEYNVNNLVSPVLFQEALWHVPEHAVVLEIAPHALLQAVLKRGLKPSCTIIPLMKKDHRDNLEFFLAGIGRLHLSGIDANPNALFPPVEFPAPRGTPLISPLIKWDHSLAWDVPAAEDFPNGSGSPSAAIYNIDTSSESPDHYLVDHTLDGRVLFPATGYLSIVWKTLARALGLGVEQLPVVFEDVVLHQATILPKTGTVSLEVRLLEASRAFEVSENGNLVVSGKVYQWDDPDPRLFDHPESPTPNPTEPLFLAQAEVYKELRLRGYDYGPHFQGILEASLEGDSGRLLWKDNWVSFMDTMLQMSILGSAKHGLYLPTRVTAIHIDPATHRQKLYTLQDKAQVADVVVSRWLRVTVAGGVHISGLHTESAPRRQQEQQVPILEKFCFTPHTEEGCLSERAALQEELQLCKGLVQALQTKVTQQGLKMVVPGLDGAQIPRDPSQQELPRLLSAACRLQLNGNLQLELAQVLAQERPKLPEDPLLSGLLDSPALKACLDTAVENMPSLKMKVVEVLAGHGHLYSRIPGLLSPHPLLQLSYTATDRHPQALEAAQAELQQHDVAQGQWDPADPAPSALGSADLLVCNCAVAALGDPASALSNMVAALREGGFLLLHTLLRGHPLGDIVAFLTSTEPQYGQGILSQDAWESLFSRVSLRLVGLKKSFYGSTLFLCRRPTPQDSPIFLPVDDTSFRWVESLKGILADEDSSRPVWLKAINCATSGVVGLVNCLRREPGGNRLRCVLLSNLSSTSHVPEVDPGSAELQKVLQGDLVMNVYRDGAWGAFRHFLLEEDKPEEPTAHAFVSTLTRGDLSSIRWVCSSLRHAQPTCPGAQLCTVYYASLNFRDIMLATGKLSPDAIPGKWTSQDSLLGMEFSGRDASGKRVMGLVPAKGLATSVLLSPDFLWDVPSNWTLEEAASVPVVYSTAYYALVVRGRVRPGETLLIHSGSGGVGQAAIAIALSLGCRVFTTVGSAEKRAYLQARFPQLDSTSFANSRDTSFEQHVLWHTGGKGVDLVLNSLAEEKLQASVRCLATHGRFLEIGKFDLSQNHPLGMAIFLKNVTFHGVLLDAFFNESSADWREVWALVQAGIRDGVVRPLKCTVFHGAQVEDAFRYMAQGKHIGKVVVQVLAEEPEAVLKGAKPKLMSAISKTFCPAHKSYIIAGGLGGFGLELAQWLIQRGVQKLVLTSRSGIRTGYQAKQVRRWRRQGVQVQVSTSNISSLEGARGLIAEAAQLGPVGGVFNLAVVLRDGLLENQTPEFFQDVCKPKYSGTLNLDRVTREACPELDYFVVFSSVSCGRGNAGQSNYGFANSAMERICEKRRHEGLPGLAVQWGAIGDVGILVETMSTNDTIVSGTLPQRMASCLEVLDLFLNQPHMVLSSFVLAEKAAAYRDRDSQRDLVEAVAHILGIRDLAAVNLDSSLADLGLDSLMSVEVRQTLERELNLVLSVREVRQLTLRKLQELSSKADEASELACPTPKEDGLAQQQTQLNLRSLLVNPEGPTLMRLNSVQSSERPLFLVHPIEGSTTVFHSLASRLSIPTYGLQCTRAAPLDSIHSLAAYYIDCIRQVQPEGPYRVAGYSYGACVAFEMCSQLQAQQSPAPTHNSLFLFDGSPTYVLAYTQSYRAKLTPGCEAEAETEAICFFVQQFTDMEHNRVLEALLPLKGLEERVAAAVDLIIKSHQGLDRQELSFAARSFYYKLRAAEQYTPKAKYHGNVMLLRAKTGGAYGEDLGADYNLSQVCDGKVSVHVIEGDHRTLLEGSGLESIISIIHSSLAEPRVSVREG
Assay type: biochemical
Experimental: Human FASN protein (SEQ ID NO 1) was purified from SKBR3 cells using procedures modified from those in Jayakumar et al., PNAS (1995) 92:8695-8699. SKBR3 cells were obtained from ATCC and grown in DMEM high glucose medium supplemented with 10% FBS, 1 μg/mL bovine pancreas insulin, 100 U/mL penicillin and 100 μg/mL streptomycin. The confluent cells were trypsinized and washed three times with PBS buffer before frozen in liquid N2 and stored at −80° C. Frozen cells were thawed on ice and re-suspended in lysis buffer (25 mM Tris-HCl, pH 7.0, 15 mM NaCl, 1 mM EDTA, and 1 mM DTT) with protease inhibitors. The cells were lysed by sonication, and the cell debris was removed by centrifugation at 20,000 rpm for 30 min. To the supernatant, neutralized saturated ammonium sulfate solution was added to a final concentration of 35%. The solution was left on ice for 1 hr, and the precipitated proteins were harvested by centrifugation at 20,000 rpm for 30 min. The proteins were re-dissolved in lysis buffer without NaCl and loaded on a mono Q column. Bound proteins were eluted with a linear gradient of NaCl in lysis buffer. Each fraction was analyzed by SDS-PAGE and FASN NADPH consumption assay. The fractions containing FASN were pooled and concentrated to 2-3 mg/mL. Glycerol was added to 20%, and the protein was frozen in liquid N2 and stored at −80° C.
All chemicals were purchased from Sigma (St. Louis, Mo.). The procedures of NADPH consumption assay were similar to those described in Cox et al., PNAS (1983) 80:4233-4237. On a 96-well polypropylene microplate, dilution series (typical concentrations 60 nM-1.0 mM) of inhibitor compounds were prepared in DMSO, of which 4.0 μL each was transferred to a black polystyrene assay microplate and mixed with 36 μL FASN assay buffer (50 mM potassium phosphate, pH 7.0, 1.0 mM EDTA, 0.01% NP-40) plus 5.0 mM fresh DTT. FASN protein (40 μL 150 nM FASN) was added per well, and the microplate was incubated at 37° C. for 30 min. Enzyme activity measurement was initiated by addition of 20 μL 5× substrate mixture to final concentrations of 60 nM FASN, 2.4 nM-40 μM compound, 0.2 mM NADPH, 50 μM butyryl-CoA, 0.5 mM malonyl-CoA in 100 μL assay buffer plus 5.0 mM DTT and 4.0% DMSO. NADPH consumption was monitored kinetically by fluorescence (λEX=340 nm, λEm=460 nm) on an EnVision 2100 multilabel plate reader (Perkin Elmer, Waltham, Mass.). FASN enzyme activity (slope) in the presence of 4% DMSO was used as maximum control, whereas background (minimum control) was measured by omission of malonyl-CoA in the substrate mixture. Inhibition curves were fitted by a logistic function to yield IC50 values: […]

Compound	IC50 [nM]
N#Cc1c(-c2c(F)cccc2F)nnn1C(=O)N1CCCC2CCCCC21 (stereo not shown)	200 to 500
N#Cc1c(-c2c(Cl)cccc2Cl)nnn1C(=O)N1CCCC2CCCCC21 (stereo not shown)	200 to 500
N#Cc1c(-c2ccccc2CCc2ccccc2)nnn1C(=O)N1CCCC2CCCCC21 (stereo not shown)	< 200
COC(=O)C1CCc2ccccc2N1C(=O)n1nnc(-c2ccccc2Oc2ccccc2)c1C#N (stereo not shown)	500 to 1000
C[C@@H](NC(=O)c1ccccc1-c1nnn(C(=O)N2CCCC3CCCCC32)c1C#N)c1ccccc1 (stereo partly shown)	200 to 500
C[C@H](NC(=O)c1ccccc1-c1nnn(C(=O)N2CCCC3CCCCC32)c1C#N)c1ccccc1 (stereo partly shown)	< 200
C[C@@H]1[C@@H](NC(=O)c2ccccc2-c2nnn(C(=O)N3CCCC4CCCCC43)c2C#N)C[C@@H]2C[C@H]1C2(C)C (stereo partly shown)	500 to 1000
C[C@H]1[C@H](NC(=O)c2ccccc2-c2nnn(C(=O)N3CCCC4CCCCC43)c2C#N)C[C@H]2C[C@@H]1C2(C)C (stereo partly shown)	200 to 500
CCN(C(=O)n1nnc(C2CCCCC2)c1C#N)c1ccccc1	200 to 500
CCN(C(=O)n1nnc(-c2ccccc2Oc2ccccc2)c1C#N)c1ccccc1	< 200
CC(=O)N1CCC(N(Cc2ccccc2)C(=O)n2nnc(-c3ccccc3Oc3ccccc3)c2C#N)CC1	> 1000
CC(C)(C)OC(=O)N1CCC(N(Cc2ccccc2)C(=O)n2nnc(-c3ccccc3Oc3ccccc3)c2C#N)CC1	> 1000
CCOC(=O)c1c(C2CC3C=CC2C3)nnn1C(=O)N1CCCC2CCCCC21 (stereo not shown)	> 1000
C[C@H]1[C@H](NC(=O)c2c(-c3ccccc3Oc3ccccc3)nnn2C(=O)N2CCCC3CCCCC32)C[C@H]2C[C@@H]1C2(C)C (stereo partly shown)	> 1000
C[C@@H]1[C@@H](NC(=O)c2c(-c3ccccc3Oc3ccccc3)nnn2C(=O)N2CCCC3CCCCC32)C[C@@H]2C[C@H]1C2(C)C (stereo partly shown)	> 1000
CCOC(=O)c1c(-c2ccccc2Oc2ccccc2)nnn1C(=O)N(CC)c1ccccc1	500 to 1000
O=C(N1CCCC2CCCCC21)n1nnc2ccccc21 (stereo not shown)	> 1000
O=C(N1CCCC2CCCCC21)n1nnc2ncccc21 (stereo not shown)	> 1000
CCN(C(=O)n1nncc1-c1ccccc1)C1CCCCC1	> 1000
CCN(C(=O)n1cc(-c2ccccc2)nn1)C1CCCCC1	> 1000
CCOC(=O)c1c(-c2ccccc2Oc2ccccc2)nnn1C(=O)N1CCCC2CCCCC21 (stereo not shown) [ethyl 1-(decahydroquinoline-1-carbonyl)-4-(2-phenoxyphenyl)-1H-1,2,3-triazole-5-carboxylate]	500 to 1000

The next lines start with the values.

IC50 [nM]	Compound
< 200	CCN(C(=O)n1nnc(-c2c(F)cccc2F)c1C#N)c1ccccc1
< 200	CCN(C(=O)n1nnc(-c2c(F)cccc2Cl)c1C#N)c1ccccc1
< 200	CCN(C(=O)n1nnc(-c2c(Cl)cccc2Cl)c1C#N)c1ccccc1
< 200	CCN(C(=O)n1nnc(-c2c(F)cccc2Cl)c1C#N)c1ccccc1F
500 to 1000	CCN(C(=O)n1nnc2ncccc21)c1ccccc1
500 to 1000	CCN(C(=O)n1nnc2ccccc21)c1ccccc1F
> 1000	CCN(C(=O)n1nnc2ccccc21)c1ccc(C(=O)O)cc1
> 1000	CCN(C(=O)n1nncc1-c1ccccc1Cl)c1ccccc1
> 1000	CCN(C(=O)n1nncc1-c1ccccc1Cl)c1ccccc1F
500 to 1000	CCN(C(=O)n1cc(-c2ccccc2Cl)nn1)c1ccccc1
> 1000	CCN(C(=O)n1cc(-c2ccccc2Cl)nn1)c1ccccc1F

The compounds below were run against T1, human FASN (assay: FASN Scintillation Proximity Flashplate assay). Details: IC50 class, FASN Scintillation Proximity Flashplate Assay (symbols with asterisk); human FASN purified from SKBR3 cells.
Assay type: biochemical
Experimental: Human FASN protein (SEQ ID NO 1) was purified from SKBR3 cells using procedures modified from those in Jayakumar et al., PNAS (1995) 92:8695-8699. SKBR3 cells were obtained from ATCC and grown in DMEM high glucose medium supplemented with 10% FBS, 1 μg/mL bovine pancreas insulin, 100 U/mL penicillin and 100 μg/mL streptomycin. The confluent cells were trypsinized and washed three times with PBS buffer before frozen in liquid N2 and stored at −80° C. Frozen cells were thawed on ice and re-suspended in lysis buffer (25 mM Tris-HCl, pH 7.0, 15 mM NaCl, 1 mM EDTA, and 1 mM DTT) with protease inhibitors. The cells were lysed by sonication, and the cell debris was removed by centrifugation at 20,000 rpm for 30 min. […] Each fraction was analyzed by SDS-PAGE and FASN NADPH consumption assay. […]
Acetyl-coenzyme A, malonyl-coenzyme A, NADPH, bovine gamma globulin, and orlistat were purchased from Sigma (St. Louis, Mo.). […] The plates were read in a Wallac 1450 Microbeta Plus liquid scintillation counter (Perkin Elmer, Waltham, Mass.), and counts per minute (CPM) were collected over 2 min. Each inhibitor well CPM was compared to the maximum FASN enzyme activity (Max) CPM and the background (Min) CPM, as measured by omission of FASN enzyme in the background well. % Inhibition values were calculated, and curves were fitted by a four-parameter logistic function to yield IC50 values: […]

IC50 [nM]	Compound
< 200	CCN(C(=O)n1nnc(-c2ccccc2CCc2ccccc2)c1C#N)c1ccccc1
< 200	CC(C)N(C(=O)n1nnc(-c2c(F)cccc2F)c1C#N)c1cccc(C(=O)O)c1 [3-(5-cyano-4-(2,6-difluorophenyl)-N-isopropyl-1H-1,2,3-triazole-1-carboxamido)benzoic acid]
